# ChEMBL document CHEMBL4811216, “Chemotherapy for human schistosomiasis: how far have we come? What's new? Where do we go from here?” (RSC Med Chem, 2020)
# Tests used:
# Schistosoma mansoni [1] = assay: Antischistosomal activity against Schistosoma mansoni Puerto-Rican assessed as worm mortality incubated for 5 days by stereomicroscopic method; format: functional, organism-based; details: 120 h; for IC90: time 5 day
# Schistosoma mansoni [2] = assay: Antischistosomal activity against Schistosoma mansoni Egyptian assessed as worm mortality incubated for 5 days by stereomicroscopic method; format: functional, organism-based; details: 120 h; for IC90: time 5 day
# Schistosoma mansoni [3] = assay: Antischistosomal activity against Schistosoma mansoni assessed as worm mortality at 5 ug/ml incubated for 5 days by stereomicroscopic method relative to control; format: functional; details: 120 h, time 5 day
# [4] = biological target: HDAC1 (histone deacetylase 1) (Homo sapiens, UniProt Q13547); assay: Inhibition of human HDAC1 using Z-Lys(Ac)-AMC as substrate at 1 uM by fluorimetric method relative to control; details: HDAC1 enzyme, probe Z-Lys(Ac)-AMC
# Schistosoma haematobium = assay: Antischistosomal activity against Schistosoma haematobium at 10 uM measured after 72 hrs relative to control; format: functional
# Schistosoma mansoni [5] = assay: microbe, parasite or virus in culture; details: Liberian, 72 h
# Description: Antischistosomal activity against Schistosoma mansoni Liberian NTS incubated for 72 hrs by microscopic method
# Schistosoma mansoni [6] = assay: microbe, parasite or virus in culture; details: 72 h
# Description: Antischistosomal activity against Schistosoma mansoni incubated for 72 hrs by inverted microscopic method
# Schistosoma mansoni [7] = assay: Antischistosomal activity against Schistosoma mansoni NTS assessed as worm mortality at 10 uM measured up to 72 hrs by microscopic method relative to control; format: functional; details: time hrs <=72
# Schistosoma mansoni [8] = assay: Antischistosomal activity against adult Schistosoma mansoni assessed as worm mortality at 10 uM measured up to 72 hrs by microscopic method relative to control; format: functional; details: time hrs <=72
# Schistosoma mansoni [9] = assay: Antischistosomal activity against adult Schistosoma mansoni measured up to 72 hrs by microscopic method; format: functional, organism-based
# Schistosoma mansoni [10] = assay: Antischistosomal activity against Schistosoma mansoni incubated for 72 hrs by microscopic method; format: functional, organism-based
# [11] = Cytotoxicity against Biomphalaria alexandrina incubated for 24 hrs
# [12] = Cytotoxicity against Biomphalaria alexandrina incubated for 24 hrs relative to control; set-up: concentration or dose not given beside the values
# HDAC1 (histone deacetylase 1), sequence (Q13547 whole entry): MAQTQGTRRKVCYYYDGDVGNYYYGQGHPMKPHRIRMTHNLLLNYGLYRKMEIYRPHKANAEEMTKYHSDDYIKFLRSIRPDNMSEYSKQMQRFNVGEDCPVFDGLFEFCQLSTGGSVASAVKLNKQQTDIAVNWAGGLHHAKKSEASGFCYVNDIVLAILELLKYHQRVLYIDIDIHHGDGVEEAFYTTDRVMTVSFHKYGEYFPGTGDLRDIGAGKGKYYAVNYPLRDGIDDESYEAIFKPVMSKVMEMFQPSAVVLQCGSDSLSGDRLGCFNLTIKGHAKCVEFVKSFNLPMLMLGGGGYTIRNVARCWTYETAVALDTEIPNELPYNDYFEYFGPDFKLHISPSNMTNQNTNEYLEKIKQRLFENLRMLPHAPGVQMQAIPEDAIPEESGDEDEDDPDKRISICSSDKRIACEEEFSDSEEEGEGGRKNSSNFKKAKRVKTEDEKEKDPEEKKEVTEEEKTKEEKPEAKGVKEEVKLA
smiles,measurement,setting,value
CCN(CC)CCCC(C)Nc1c2c3ccccc3nc-2n(C)c2ccc(Cl)cc12 (configuration not stated),IC50,Schistosoma mansoni [1],15000 nM
same,IC90,Schistosoma mansoni [1],21600 nM
same,IC50,Schistosoma mansoni [2],11700 nM
same,IC90,Schistosoma mansoni [2],16800 nM
same,mortality at 5 µg/mL,Schistosoma mansoni [3],100%
Cc1cc(C)cc(CONC(=O)c2cccc(C(=O)NO)c2)c1,inhibition at 1 µM,[4],< 10%
c1ccc(Oc2ccc(-c3cncc(-c4ccc5[nH]ccc5c4)n3)cc2)cc1,Activity,Schistosoma haematobium,75.4%
same,IC50,Schistosoma mansoni [5],2200 nM
same,IC50,Schistosoma mansoni [6],3400 nM
CCN(CC)CCCC(C)Nc1c2c3ccccc3nc-2n(C)c2cc(Cl)ccc12 (configuration not stated),IC50,Schistosoma mansoni [1],29300 nM
same,IC90,Schistosoma mansoni [1],32800 nM
same,IC50,Schistosoma mansoni [2],19300 nM
same,IC90,Schistosoma mansoni [2],24300 nM
same,mortality at 5 µg/mL,Schistosoma mansoni [3],100%
N#Cc1c(C(F)(F)F)cc(Nc2ccc3nc(NCCN4CCCC4)oc3c2)n2c1nc1ccccc12,mortality at 10 µM,Schistosoma mansoni [7],> 70%
same,mortality at 10 µM,Schistosoma mansoni [8],> 60%
same,IC50,Schistosoma mansoni [9],200 nM
O=C(Nc1ccc(C(F)(F)F)c(C(F)(F)F)c1)c1cc(Cl)ccc1O,Activity,Schistosoma haematobium,100%
same,IC50,Schistosoma mansoni [5],200 nM
same,IC50,Schistosoma mansoni [6],2100 nM
CCNCCNc1cc(-c2ccc(C(F)(F)F)cc2)c(C#N)c2nc3c(Cl)cc(Cl)cc3n12,mortality at 10 µM,Schistosoma mansoni [7],> 70%
same,IC50,Schistosoma mansoni [9],200 nM
CCNCCNc1cc(-c2ccc(Cl)c(Cl)c2)c(C#N)c2nc3ccccc3n12,mortality at 10 µM,Schistosoma mansoni [7],> 70%
same,IC50,Schistosoma mansoni [9],200 nM
N#Cc1c(-c2ccc(C(F)(F)F)cc2)cc(NCCn2ccnc2)n2c1nc1ccccc12,mortality at 10 µM,Schistosoma mansoni [7],> 70%
same,IC50,Schistosoma mansoni [9],200 nM
N#Cc1c(C(F)(F)F)cc(Nc2ccccc2OC(F)(F)F)n2c1nc1ccccc12,IC50,Schistosoma mansoni [10],200 nM
CCN1CCCC1CNc1c2c3ccccc3nc-2n(C)c2ccc(Cl)cc12 (configuration not stated),LC50,[11],2950 nM
same,LC90,[11],4100 nM
same,mortality,[12],100%
FC(F)(F)Oc1ccc(Nc2cc(C(F)(F)F)cc3nc4ccccc4n23)cc1,IC50,Schistosoma mansoni [10],200 nM
CN(C)CCNc1nc2ccc(Nc3cc(C(F)(F)F)c(C#N)c4nc5ccccc5n34)cc2o1,mortality at 10 µM,Schistosoma mansoni [7],> 70%
same,mortality at 10 µM,Schistosoma mansoni [8],> 60%
same,IC50,Schistosoma mansoni [9],200 nM
CN1CCC(Nc2cc(-c3ccc(C(F)(F)F)cc3)c(C#N)c3nc4cc(Cl)c(Cl)cc4n23)CC1,mortality at 10 µM,Schistosoma mansoni [7],> 70%
same,IC50,Schistosoma mansoni [9],200 nM
N#Cc1ccc(Nc2cc(C(F)(F)F)c(C#N)c3nc4ccccc4n23)cc1,mortality at 10 µM,Schistosoma mansoni [7],> 70%
same,mortality at 10 µM,Schistosoma mansoni [8],> 60%
same,IC50,Schistosoma mansoni [9],200 nM
Nc1nc(NCC2CCC(CNS(=O)(=O)c3ccc4ccccc4c3)CC2)nc2ccccc12 (configuration not stated),IC50,Schistosoma mansoni [5],600 nM
same,IC50,Schistosoma mansoni [6],2000 nM
O=C(NO)c1cccc(C(=O)NOCc2ccc(F)c(F)c2)c1,inhibition at 1 µM,[4],< 10%
N#Cc1c(C(F)(F)F)cc(Nc2ccc(CN3CCOCC3)cc2)n2c1nc1ccccc12,mortality at 10 µM,Schistosoma mansoni [7],> 70%
same,mortality at 10 µM,Schistosoma mansoni [8],> 60%
same,IC50,Schistosoma mansoni [9],200 nM
N#Cc1c(C(F)(F)F)cc(Nc2ccc(OC(F)(F)F)cc2)n2c1nc1ccccc12,IC50,Schistosoma mansoni [10],200 nM
CS(=O)(=O)c1ccc(Nc2cc(C(F)(F)F)c(C#N)c3nc4ccccc4n23)cc1,mortality at 10 µM,Schistosoma mansoni [7],> 70%
same,mortality at 10 µM,Schistosoma mansoni [8],> 60%
same,IC50,Schistosoma mansoni [9],200 nM
O=C(NO)c1cccc(C(=O)NOCc2ccccc2)c1,inhibition at 1 µM,[4],< 10%
CCNCCNc1cc(-c2ccc(C(F)(F)F)cc2)c(C#N)c2nc3ccccc3n12,mortality at 10 µM,Schistosoma mansoni [7],> 70%
same,IC50,Schistosoma mansoni [9],200 nM
O=S(=O)(Nc1cc(C(F)(F)F)cc2nc3cc(Cl)c(Cl)cc3n12)c1ccc(OC(F)(F)F)cc1,IC50,Schistosoma mansoni [10],200 nM
Cn1c(=O)c2c(S(C)(=O)=O)snc2n(C)c1=O,Activity,Schistosoma haematobium,75.4%
same,IC50,Schistosoma mansoni [5],800 nM
same,IC50,Schistosoma mansoni [6],4700 nM
Clc1ccc2c(N3CCNCCN(c4ccnc5cc(Cl)ccc45)CCNCC3)ccnc2c1,IC50,Schistosoma mansoni [10],1600 nM
CCNCCNc1cc(-c2ccc(C(F)(F)F)cc2)c(C#N)c2nc3cc(Cl)c(Cl)cc3n12,mortality at 10 µM,Schistosoma mansoni [7],> 70%
same,IC50,Schistosoma mansoni [9],200 nM
N#Cc1c(C(F)(F)F)cc(NCc2ccco2)n2c1nc1cc(Cl)c(Cl)cc12,IC50,Schistosoma mansoni [10],200 nM
Cc1ccc(CONC(=O)c2cccc(C(=O)NO)c2)cc1,inhibition at 1 µM,[4],< 10%
N#Cc1c(C(F)(F)F)cc(NCc2ccc(F)cc2)n2c1nc1cc(Cl)cc(Cl)c12,IC50,Schistosoma mansoni [10],200 nM
N#Cc1c(C(F)(F)F)cc(Nc2ccnc(F)c2)n2c1nc1ccccc12,mortality at 10 µM,Schistosoma mansoni [7],> 70%
same,mortality at 10 µM,Schistosoma mansoni [8],> 60%
same,IC50,Schistosoma mansoni [9],200 nM
N#Cc1c(C(F)(F)F)cc(Nc2cccc(OC(F)(F)F)c2)n2c1nc1ccccc12,IC50,Schistosoma mansoni [10],200 nM
COc1ncnc(Nc2cc(C(F)(F)F)c(C#N)c3nc4ccccc4n23)c1OC,IC50,Schistosoma mansoni [10],200 nM
same,mortality at 10 µM,Schistosoma mansoni [7],> 70%
same,mortality at 10 µM,Schistosoma mansoni [8],> 60%
same,IC50,Schistosoma mansoni [9],200 nM
O=C(NO)c1cccc(C(=O)NOCCCc2ccccc2)c1,inhibition at 1 µM,[4],< 10%
N#Cc1c(C(F)(F)F)cc(NCc2cccs2)n2c1nc1cc(Cl)c(Cl)cc12,IC50,Schistosoma mansoni [10],200 nM
